Assays:
KM12 = assay: Growth inhibition of human KM12 cells after 48 hrs by SRB assay; assay type: functional; details: KM12, 48 h
[1] = Growth inhibition of human HCC2998 cells after 48 hrs by SRB assay; assay type: functional; details: HCC 2998, 48 h
U-251 = assay: Growth inhibition of human U251 cells after 48 hrs by SRB assay; assay type: functional; details: U-251, 48 h
[2] = molecular target: Hepatocyte growth factor receptor (Homo sapiens) (UniProt P08581); assay: Inhibition of c-Met (unknown origin) at 10 uM
Chain of Hepatocyte growth factor receptor (Homo sapiens) (P08581 whole entry): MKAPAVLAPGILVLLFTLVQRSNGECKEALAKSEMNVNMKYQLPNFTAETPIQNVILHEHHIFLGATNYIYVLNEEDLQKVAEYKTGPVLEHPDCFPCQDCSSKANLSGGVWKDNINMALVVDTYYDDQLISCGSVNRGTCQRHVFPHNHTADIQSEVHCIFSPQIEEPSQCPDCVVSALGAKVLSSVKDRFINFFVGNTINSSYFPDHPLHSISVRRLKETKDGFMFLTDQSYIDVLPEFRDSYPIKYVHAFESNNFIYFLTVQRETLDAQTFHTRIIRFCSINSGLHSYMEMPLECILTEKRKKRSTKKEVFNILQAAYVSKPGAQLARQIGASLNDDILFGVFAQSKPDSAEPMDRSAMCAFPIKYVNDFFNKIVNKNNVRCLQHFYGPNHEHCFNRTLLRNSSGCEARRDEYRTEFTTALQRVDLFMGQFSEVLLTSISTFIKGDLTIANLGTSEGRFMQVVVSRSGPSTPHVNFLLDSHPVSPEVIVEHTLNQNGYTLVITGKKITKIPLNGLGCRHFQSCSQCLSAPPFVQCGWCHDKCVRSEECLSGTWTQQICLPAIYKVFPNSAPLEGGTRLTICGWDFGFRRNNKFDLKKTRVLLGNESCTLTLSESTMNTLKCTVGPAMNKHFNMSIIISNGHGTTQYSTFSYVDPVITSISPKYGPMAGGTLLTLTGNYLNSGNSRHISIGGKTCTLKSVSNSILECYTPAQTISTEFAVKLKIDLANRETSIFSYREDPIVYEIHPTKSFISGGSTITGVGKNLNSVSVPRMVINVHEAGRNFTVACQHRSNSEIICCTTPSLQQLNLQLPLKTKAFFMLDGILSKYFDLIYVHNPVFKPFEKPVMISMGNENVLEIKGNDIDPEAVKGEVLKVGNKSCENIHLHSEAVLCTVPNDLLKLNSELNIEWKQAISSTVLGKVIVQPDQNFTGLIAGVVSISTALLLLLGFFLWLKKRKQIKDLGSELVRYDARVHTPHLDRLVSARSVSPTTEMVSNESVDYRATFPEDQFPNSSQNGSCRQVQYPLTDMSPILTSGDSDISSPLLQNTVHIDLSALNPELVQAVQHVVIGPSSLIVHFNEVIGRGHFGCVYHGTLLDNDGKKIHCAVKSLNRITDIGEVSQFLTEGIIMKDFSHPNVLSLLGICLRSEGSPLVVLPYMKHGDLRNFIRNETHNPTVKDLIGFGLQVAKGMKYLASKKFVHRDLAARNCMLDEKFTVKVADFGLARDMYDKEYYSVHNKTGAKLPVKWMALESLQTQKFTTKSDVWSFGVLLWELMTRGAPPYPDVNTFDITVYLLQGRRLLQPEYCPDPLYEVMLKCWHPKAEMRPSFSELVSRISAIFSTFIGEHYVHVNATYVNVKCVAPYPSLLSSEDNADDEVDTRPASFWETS

[3] = Growth inhibition of human OVCAR8 cells after 48 hrs by SRB assay; assay type: functional; details: OVCAR-8, 48 h
NCI-H522 = assay: Growth inhibition of human NCI-H522 cells after 48 hrs by SRB assay; assay type: functional; details: NCI-H522, 48 h
[4] = Growth inhibition of human PC3 cells after 48 hrs by SRB assay; assay type: functional; details: PC-3, 48 h
SR = assay: Growth inhibition of human SR cells after 48 hrs by SRB assay; assay type: functional
A549 = assay: Growth inhibition of human A549/ATCC cells after 48 hrs by SRB assay; assay type: functional; details: A549, 48 h
T47D = assay: Growth inhibition of human T47D cells after 48 hrs by SRB assay; assay type: functional
[5] = Growth inhibition of human HOP62 cells after 48 hrs by SRB assay; assay type: functional; details: HOP-62, 48 h
[6] = Growth inhibition of human HL-60(TB) cells after 48 hrs by SRB assay; assay type: functional; details: HL-60, 48 h
MDA-MB-468 = assay: Growth inhibition of human MDA-MB-468 cells after 48 hrs by SRB assay; assay type: functional; details: MDA-MB-468, 48 h
[7] = Growth inhibition of human SW620 cells after 48 hrs by SRB assay; assay type: functional; details: SW-620, 48 h
M14 = assay: Growth inhibition of human M14 cells after 48 hrs by SRB assay; assay type: functional; details: M14, 48 h
NCI-H23 = assay: Growth inhibition of human NCI-H23 cells after 48 hrs by SRB assay; assay type: functional; details: NCI-H23, 48 h
[8] = Growth inhibition of human RXF393 cells after 48 hrs by SRB assay; assay type: functional; details: RXF 393, 48 h
[9] = Growth inhibition of human HCT116 cells after 48 hrs by SRB assay; assay type: functional; details: HCT-116, 48 h
[10] = Growth inhibition of human HCT15 cells after 48 hrs by SRB assay; assay type: functional; details: HCT-15, 48 h
[11] = Growth inhibition of human SF295 cells after 48 hrs by SRB assay; assay type: functional; details: SF-295, 48 h
[12] = Growth inhibition of human Caki1 cells after 48 hrs by SRB assay; assay type: functional; details: CAKI-1, 48 h
[13] = Growth inhibition of human SKOV3 cells after 48 hrs by SRB assay; assay type: functional; details: SK-OV-3, 48 h
[14] = Growth inhibition of human SNB75 cells after 48 hrs by SRB assay; assay type: functional; details: SNB-75, 48 h
[15] = Growth inhibition of human LOXIMVI cells after 48 hrs by SRB assay; assay type: functional; details: LOX IMVI
MDA-MB-435 = assay: Growth inhibition of human MDA-MB-435 cells after 48 hrs by SRB assay; assay type: functional; details: MDA-MB-435, 48 h
[16] = Growth inhibition of human DU145 cells after 48 hrs by SRB assay; assay type: functional; details: DU-145, 48 h
[17] = Growth inhibition of human COLO205 cells after 48 hrs by SRB assay; assay type: functional; details: COLO 205, 48 h
[18] = Growth inhibition of human NCI-ADR-RES cells after 48 hrs by SRB assay; assay type: functional
[19] = Growth inhibition of human OVCAR3 cells after 48 hrs by SRB assay; assay type: functional; details: OVCAR-3, 48 h
MCF7 = assay: Growth inhibition of human MCF7 cells after 48 hrs by SRB assay; assay type: functional; details: MCF7, 48 h
[20] = Growth inhibition of human Hs 578T cells after 48 hrs by SRB assay; assay type: functional
EKVX = assay: Growth inhibition of human EKVX cells after 48 hrs by SRB assay; assay type: functional
[21] = read-out: LC50 (the source's name)

COc1cccc(Nc2nccc(Nc3ccc4[nH]ncc4c3)n2)c1
GI50 (KM12): 1.64 µM | TGI (KM12): 4.81 µM | CC50 (KM12; [21]): 17.4 µM | GI50 [1]: 1.79 µM | TGI [1]: 3.36 µM | CC50 [1, 21]: 6.29 µM | GI50 (U-251): 1.58 µM | TGI (U-251): 3.18 µM | CC50 (U-251; [21]): 6.39 µM | inhibition [2]: 54% | GI50 [3]: 1.67 µM | TGI [3]: 4.39 µM | CC50 [3, 21]: 13.4 µM | GI50 (NCI-H522): 1.48 µM | LC50 (NCI-H522): 5.54 µM | TGI (NCI-H522): 2.86 µM | GI50 [4]: 1.34 µM | LC50 [4]: 7.23 µM | TGI [4]: 3.12 µM | GI50 (SR): 1.34 µM | TGI (SR): 4.93 µM | CC50 (SR; [21]): 20.6 µM | GI50 (A549): 1.71 µM | TGI (A549): 3.74 µM | CC50 (A549; [21]): 8.22 µM | GI50 (T47D): 1.05 µM | LC50 (concentration killing 50% of cells) (T47D): 9.23 µM | TGI (T47D): 3.12 µM | GI50 [5]: 1.71 µM | LC50 [5]: 8.36 µM | TGI [5]: 3.78 µM | GI50 [6]: 1.53 µM | LC50 [6]: 8.29 µM | TGI [6]: 3.56 µM | GI50 (MDA-MB-468): 1.25 µM | TGI (MDA-MB-468): 2.77 µM | CC50 (MDA-MB-468; [21]): 6.13 µM | GI50 [7]: 2.41 µM | TGI [7]: 6.13 µM | CC50 [7, 21]: 21 µM | GI50 (M14): 1.35 µM | TGI (M14): 2.81 µM | CC50 (M14; [21]): 5.83 µM | GI50 (NCI-H23): 1.69 µM | TGI (NCI-H23): 3.83 µM | CC50 (NCI-H23; [21]): 8.7 µM | GI50 [8]: 1.06 µM | LC50 (50% lethal concentration) [8]: 5.1 µM | TGI [8]: 2.33 µM | GI50 [9]: 1.59 µM | TGI [9]: 3.23 µM | CC50 [9, 21]: 6.54 µM | GI50 [10]: 1.21 µM | LC50 [10]: 7.01 µM | TGI [10]: 2.91 µM | GI50 [11]: 1.66 µM | LC50 (concentration killing 50% of cells) [11]: 6.04 µM | TGI [11]: 3.17 µM | GI50 [12]: 0.99 µM | TGI [12]: 2.51 µM | CC50 [12, 21]: 6.33 µM | GI50 [13]: 2.31 µM | LC50 [13]: 16.4 µM | TGI [13]: 5.4 µM | GI50 [14]: 1.39 µM | LC50 [14]: 7.08 µM | TGI [14]: 3.13 µM | GI50 [15]: 1.44 µM | LC50 [15]: 7.07 µM | TGI [15]: 3.19 µM | GI50 (MDA-MB-435): 1.49 µM | LC50 (MDA-MB-435): 6.78 µM | TGI (MDA-MB-435): 3.18 µM | GI50 [16]: 1.3 µM | LC50 [16]: 6.24 µM | TGI [16]: 2.85 µM | GI50 [17]: 1.57 µM | LC50 [17]: 6.76 µM | TGI [17]: 3.26 µM | GI50 [18]: 1.54 µM | LC50 [18]: 14.8 µM | TGI [18]: 4.36 µM | GI50 [19]: 1.58 µM | TGI [19]: 4.07 µM | CC50 [19, 21]: 11.1 µM | GI50 (MCF7): 1.26 µM | TGI (MCF7): 3.11 µM | CC50 (MCF7; [21]): 7.53 µM | GI50 [20]: 1.79 µM | TGI [20]: 4.61 µM | CC50 [20, 21]: 15.2 µM | GI50 (EKVX): 1.64 µM | TGI (EKVX): 4.09 µM | CC50 (EKVX; [21]): 10.5 µM
